Results as given in EPA's ToxValDB 9.5.
Several values for one entry are separate records, joined by “and”; a condition that tells them apart may be missing. Equal values may be shown once.

Assays:
Rattus norvegicus [1] = conditions: subchronic, oral, drinking water, Fischer 344, Deaths + Clinical Observation: Emaciation Diarrhea Abnormal posture Tremors + Body Weight Changes: decrease + Water Consumption: decrease + …
Oryctolagus sp. [2] = conditions: subchronic, inhalation
Cavia porcellus = conditions: acute; inhalation; Guinea Pig
Mus musculus [3] = conditions: acute
Rattus norvegicus [4] = conditions: acute
Mus musculus [5] = conditions: uterotrophic, Active
Rattus norvegicus [6] = conditions: for LEL: uterotrophic, Active
Canidae [7] = conditions: oral
Rattus norvegicus [8] = test system: Rattus norvegicus
Rattus norvegicus [9] = conditions: Wistar; for LOAEL: subchronic
Canidae [10] = conditions: chronic; oral; diet; M/F; Dog Other; methemoglobin and sulfhemoglobin formation
Rattus norvegicus [11] = conditions: chronic; duration: 2 years; oral; Increased methaemoglobin and sulfhaemoglobin levels
Mus musculus [12] = conditions: repeat dose other; oral
Oryctolagus sp. [13] = conditions: duration: 14 days, oral, gavage, New Zealand
Rattus norvegicus [14] = conditions: oral; for LOAEL / NOAEL: Crl: CD BR
[15] = M/F, New Zealand, reduced testes weight, seminiferous tubule degeneration and reduced hemoglobin
[16] = duration: 3 days, injection, intraperitoneal
[17] = subchronic, duration: 3 months, gavage, M/F, Beagle, Mydriasis
[18] = reproduction developmental, oral, drinking water, M/F, neurodevelopmental effects
[19] = duration: 36 days, injection, subcutaneous
[20] = chronic, duration: 1 years, gavage, M/F, Beagle, Mydriasis and focal neuronal degeneration
[21] = developmental, M/F, generation: F1, F1: Developmental: Uterus: Dead Fetuses + F1: Developmental: Uterus: Fetuses, Live + F1: Developmental: Whole Body: Body Weight, Fetal + F1…
[22] = reproduction developmental, F, generation: P0, P0: Developmental: Uterus: Abortions + P0: Developmental: Uterus: Implantation + P0: Developmental: Uterus: Resorptions, Early + P0: …
[23] = reproduction developmental, F, generation: P0, P0: Uterus: Abortions
[24] = reproduction developmental, F, generation: P0, P0: Whole Body: Maternal Body Weight Change
[25] = developmental, duration: 11 days, gavage, M/F, generation: F1, F1: Developmental: Uterus: Dead Fetuses + F1: Developmental: Uterus: Fetuses, Live + F1: Developmental: Whole Body: Body Weight, Fetal + F1…
[26] = developmental, duration: 11 days, gavage, M/F, Crl:CD(SD) BR, generation: F1, F1: Whole Body: Body Weight, Fetal
[27] = reproduction developmental, duration: 11 days, gavage, F, generation: P0, P0: Developmental: Uterus: Implantation + P0: Developmental: Uterus: Resorptions, Early + P0: Developmental: Uterus: Resorptions, Late + P0…
[28] = duration: 7 days, injection, subcutaneous

CCOCCO [2-Ethoxyethanol]
NOEL (Rattus norvegicus [1]; F): 122 mg/kg-day
NOEL (Rattus norvegicus [1]; M/F): < 190 mg/kg-day
LOAEL (Oryctolagus sp. [2]; [15]): 1480 mg/m3
NOAEL (Oryctolagus sp. [2]; [15]): 380 mg/m3

N#CCCSCCC#N [3,3'-Thiodipropionitrile]
LC50 (Cavia porcellus): > 88.9 mg/m3
LC50 (Mus musculus [3]; inhalation): > 88.9 mg/m3
LD50 (Mus musculus [3]; oral, gavage, albino): 3750 mg/kg
LC50 (Rattus norvegicus [4]; inhalation): > 88.9 mg/m3

CCCCCCCCCc1ccc(O)cc1 [4-Nonylphenol]
LEL (Mus musculus [5]; duration: 0.17 days, injection, subcutaneous): 0.022 mg
LEL (Rattus norvegicus [6]; duration: 1 days, injection, subcutaneous): 200 mg/kg-day and 600 mg/kg-day
LEL (Rattus norvegicus [6]; [16]): 100 mg/kg-day
LEL (Rattus norvegicus [6]; duration: 5 days, oral): 100 mg/kg-day
LEL (Rattus norvegicus [6]; duration: 7 days, oral): 120 mg/kg-day
LEL (Rattus norvegicus [6]; duration: 11 days, oral): 150 mg/kg-day

Cc1ccc2c(=O)c3cccc(CC(=O)O)c3oc2c1C [5,6-Dimethylxanthenone-4-acetic acid]
LOEL (Canidae [7]; [17]): 0.3 mg/kg-day
NOEL (Canidae [7]; [17]): 0.1 mg/kg-day

[O][Cl+][O-] [Chlorine dioxide]
LOAEL (Oryctolagus sp. [2]; duration: 45 days, Hemorrhagic alveoli and congested capillaries the lungs): 6.9 mg/m3
LOAEL (Rattus norvegicus [8]; [18]): 6 mg/kg-day
NOAEL (Rattus norvegicus [8]; [18]): 3 mg/kg-day
LOAEL (Rattus norvegicus [8]; subchronic, duration: 60 days, inhalation, vascular congestion and peribronchial edema): 2.76 mg/m3
LOAEL (Rattus norvegicus [9]; duration: 2 months, inhalation, unknown, respiratory): 2.76 mg/m3

CC(=O)O[C@]1(C(C)=O)CC[C@H]2[C@@H]3C=C(Cl)C4=CC(=O)[C@@H]5C[C@@H]5[C@]4(C)[C@H]3CC[C@@]21C [Cyproterone acetate]
LEL (Mus musculus [5]; [19]): 2 mg and 1 mg/day
LOEL (Rattus norvegicus [6]; Hershberger, duration: 10 days, oral, gavage, Wistar, active + Negative + Antiandrogenic + anti-androgenic): 0.4 mg/kg-day
LEL (Rattus norvegicus [6]; [19]): 3 mg and 1 mg/day

O=C(NC(=O)c1c(F)cccc1F)Nc1ccc(Cl)cc1 [Diflubenzuron]
LEL (Canidae [10]): 10 mg/kg-day
NOEL (Canidae [10]): 2 mg/kg-day
NOAEL (Canidae [7]; chronic, duration: 1 years, Dog Other, Increased methaemoglobin and sulfhaemoglobin levels, platelet counts and hepatic pigmentation): 2 mg/kg-day
NOAEL (Rattus norvegicus [11]): 2 mg/kg-day

CCCCCCOC(=O)c1ccccc1C(=O)OCCCCCC [Dihexyl phthalate]
LD50 (Rattus norvegicus [4]; oral): 38.9 mg/kg and 29.6 mg/kg
LOAEL (Mus musculus [12]): 550 mg/kg-day
NOAEL (Mus musculus [12]): 55 mg/kg-day

CC(=O)NCC(=O)O.CC(=O)NCC(=O)O.N=C(N)c1ccc(N=NNc2ccc(C(=N)N)cc2)cc1 [Diminazene diaceturate]
LOEL (Canidae [7]; chronic, duration: 9 months, capsule, M/F, Beagle, Decreased bodyweights, mortality, prostatic malfunction, foci of softening in the brainstem, & testicular atrophy): 60 mg/kg-day
LOEL (Canidae [7]; duration: 9 months, capsule, M/F, Beagle, Decreased bodyweights, mortality, prostatic malfunction, foci of softening in the brainstem, & testicular atrophy): 60 mg/kg-day

CO[C@H]1C[C@H](O[C@H]2[C@H](C)O[C@@H](O[C@@H]3/C(C)=C/C[C@@H]4C[C@@H](C[C@]5(C=C[C@H](C)[C@@H](C6CCCCC6)O5)O4)OC(=O)[C@@H]4C=C(C)[C@@H](O)[C@H]5OC/C(=C\C=C\[C@@H]3C)[C@]54O)C[C@@H]2OC)O[C@@H](C)[C@@H]1O [Doramectin]
LOEL (Canidae [7]; duration: 3 months, gavage, M/F, Beagle, Mydriasis): 0.3 mg/kg-day
NOEL (Canidae [7]; subchronic, duration: 3 months, gavage, M/F, Dog Other, Mydriasis): 0.1 mg/kg-day

CO[C@H]1C[C@H](O[C@@H]2/C(C)=C\C[C@@H]3C[C@@H](C[C@]4(C=C[C@H](C)[C@@H](C(C)C)O4)O3)OC(=O)[C@@H]3C=C(C)[C@@H](O)[C@H]4OC/C(=C/C=C\[C@@H]2C)[C@]43O)O[C@@H](C)[C@H]1O[C@H]1C[C@@H](OC)[C@H](NC(C)=O)[C@H](C)O1 [Eprinomectin]
LOAEL (Canidae [7]; [20]): 2 mg/kg-day
NOEL (Canidae [7]; [20]): 1 mg/kg-day

C=C1C[C@]23C[C@@]1(O)CC[C@H]2[C@@]12C=C[C@H](O)[C@@](C)(C(=O)O1)[C@H]2[C@@H]3C(=O)O [Gibberellic acid]
LEL (Mus musculus [5]; duration: 5 days, injection, subcutaneous): 0.0001 mg/day

CCN(CCO)S(=O)(=O)C(F)(F)C(F)(F)C(F)(F)C(F)(F)C(F)(F)C(F)(F)C(F)(F)C(F)(F)F [N-Ethyl-N-(2-hydroxyethyl)perfluorooctane sulfonamide]
LOAEL (Oryctolagus sp. [13]; [21]): 2.5 mg/kg-day
NOAEL (Oryctolagus sp. [13]; [21]): 1 mg/kg-day
NEL (Oryctolagus sp. [13]; developmental, M/F, generation: F1, F1: Uterus: Fetuses, Dead + F1: Uterus: Fetuses, Live + F1: Whole Body: Body Weight, Fetal + F1: Whole Body: Fetal Alterations Count, …): 3.75 mg/kg-day
LOAEL (Oryctolagus sp. [13]; [22]): 2.5 mg/kg-day
NOAEL (Oryctolagus sp. [13]; [22]): 1 mg/kg-day
NEL (Oryctolagus sp. [13]; reproduction developmental, F, generation: P0, P0: Ovary: Corpora Lutea + P0: Uterus: Implantation + P0: Uterus: Resorptions, Early + P0: Uterus: Resorptions, Late + P0: Whole Body: …): 3.75 mg/kg-day
NOAEL (Oryctolagus sp. [13]; reproduction developmental, F, generation: P0, P0: Reproductive: Ovary: Corpora Lutea): 3.75 mg/kg-day
LEL (Oryctolagus sp. [13]; [23]): 3.75 mg/kg-day
NEL (Oryctolagus sp. [13]; [23]): 2.5 mg/kg-day
LEL (Oryctolagus sp. [13]; [24]): 2.5 mg/kg-day
NEL (Oryctolagus sp. [13]; [24]): 1 mg/kg-day
LOAEL (Rattus norvegicus [14]; [25]): 10 mg/kg-day
NOAEL (Rattus norvegicus [14]; [25]): 5 mg/kg-day
NEL (Rattus norvegicus [14]; developmental, duration: 11 days, gavage, M/F, Crl:CD(SD) BR, generation: F1, F1: Uterus: Fetuses, Dead + F1: Uterus: Fetuses, Live + F1: Whole Body: Fetal Alterations Count, External Malformations + F1: Whole Body: …): 20 mg/kg-day
LEL (Rattus norvegicus [14]; [26]): 10 mg/kg-day
NEL (Rattus norvegicus [14]; [26]): 5 mg/kg-day
LOAEL (Rattus norvegicus [14]; [27]): 10 mg/kg-day
NOAEL (Rattus norvegicus [14]; [27]): 5 mg/kg-day
NOAEL (Rattus norvegicus [14]; reproduction developmental, duration: 11 days, gavage, F, generation: P0, P0: Reproductive: Ovary: Corpora Lutea): 20 mg/kg-day
NEL (Rattus norvegicus [14]; reproduction developmental, duration: 11 days, gavage, F, Crl:CD(SD) BR, generation: P0, P0: Ovary: Corpora Lutea + P0: Uterus: Implantation + P0: Uterus: Resorptions, Early + P0: Uterus: Resorptions, Late + P0: Whole Body: …): 20 mg/kg-day
NEL (Rattus norvegicus [14]; short-term, duration: 3 weeks, F, Sprague-Dawley, Kidney: Kidney Weight, Absolute + Kidney: Kidney Weight, Relative + Liver: Acyl-CoA Oxidase Activity, Liver + Liver: Catalase (CAT) Activity…): 5 mg/kg-day
LEL (Rattus norvegicus [14]; short-term, duration: 3 weeks, F, Sprague-Dawley, Liver: Copper Zinc Superoxide Dismutase (CuZnSOD) Activity, Lver + Liver: Liver Weight, Relative + Liver: Manganese Superoxide Dismutase (…): 5 mg/kg-day

C#C[C@]1(O)CC[C@H]2[C@@H]3CCC4=CC(=O)CC[C@@H]4[C@H]3CC[C@@]21C [Norethindrone]
LEL (Mus musculus [5]; duration: 3 days, oral): 0.1 mg/day
NOEL (Rattus norvegicus [6]; Hershberger, duration: 10 days, oral, gavage, Sprague-Dawley, active + negative + Negative + neither): 10 mg/kg-day
LEL (Rattus norvegicus [6]; duration: 14 days, injection, subcutaneous): 2 mg/day
LEL (Rattus norvegicus [6]; duration: 14 days, oral): 0.1 mg/day

COC(=O)[C@H]1[C@H]2C[C@@H]3c4[nH]c5cc(OC)ccc5c4CCN3C[C@H]2C[C@@H](OC(=O)c2cc(OC)c(OC)c(OC)c2)[C@@H]1OC [Reserpine]
LEL (Mus musculus [5]; [28]): 3 mg/kg-day

CC(=O)[O-].CC(=O)[O-].[O]=[U+2]=[O] [Uranyl acetate]
LOAEL (Mus musculus [12]): 6.13 mg/kg-day
NOAEL (Mus musculus [12]): 3.07 mg/kg-day

ClC1C(Cl)C(Cl)C(Cl)C(Cl)C1Cl (stereo not drawn) [beta-Hexachlorocyclohexane]
NOAEL (Rattus norvegicus [9]; short-term, duration: 2 weeks, oral, diet, M/F, neurological): 8 mg/kg-day
LOAEL (Rattus norvegicus [9]; duration: 13 weeks, oral, diet, M/F, hepatic): 0.18 mg/kg-day
LEL (Mus musculus [5]; [16]): 100 mg/kg-day
LEL (Rattus norvegicus [6]; duration: 3 days, oral): 3 mg/kg-day

Clc1ccc(C(c2ccccc2Cl)C(Cl)(Cl)Cl)cc1 (centres undefined) [o,p'-DDT]
LEL (Mus musculus [5]; duration: 1 days, oral): 375 mg/kg-day and 300 mg/kg-day
LEL (Mus musculus [5]; duration: 3 days, oral): 30 mg/kg-day
LEL (Rattus norvegicus [6]; duration: 0.25 days, injection, subcutaneous): 10 mg/day
LEL (Rattus norvegicus [6]; duration: 1 days, oral): 300 mg/kg-day
LEL (Rattus norvegicus [6]; duration: 2 days, injection, intraperitoneal): 4 mg
LEL (Rattus norvegicus [6]; duration: 2 days, injection, subcutaneous): 4 mg
LEL (Rattus norvegicus [6]; duration: 3 days, oral, diet): 250 ppm
LEL (Rattus norvegicus [6]; duration: 7 days, injection, intraperitoneal): 10 mg/day
LEL (Rattus norvegicus [6]; [28]): 50 mg/kg-day and 100 mg/kg-day
LEL (Rattus norvegicus [6]; duration: 7 days, oral): 50 mg/kg-day
LEL (Rattus norvegicus [6]; duration: 7 days, oral, diet): 500 ppm
LEL (Rattus norvegicus [6]; duration: 8 days, oral, diet): 500 ppm
LEL (Rattus norvegicus [6]; duration: 27 days, injection, intraperitoneal): 0.5 mg/day
